The values below come from US11208405B2, “Pyrrole derivatives as PLK1 inhibitors” (SENTINEL ONCOLOGY LIMITED, priority 2017, dated 2021).

The test system of data set [1] is HCT116 cells (a mutant KRAS G-13D expressing cell line). The data set is described as follows: Drug resistance studies in HCT116 cells. As to conditions: five times the half maximal growth inhibiting amount, twenty two days. In kind it is cell-based.
Data set [2] has as its target T1, NEK6 (Homo sapiens, UniProt Q9HC98).
T1 construct: purchased DiscoverX
In words: Kinase selectivity assay (DiscoverX KinomeScreen), NEK6. To be noted: NEK6, 5 μM; read-out: % Control. In kind it is binding. As to the method:
(§1) The compound of Example 33 was tested for off-target activity against a panel of fifty five kinases bearing functional or structural similarity to PLK1 at a concentration of 5 μM using the DiscoverX KinomeScreen assay.

Data set [3] has as its target T2, ULK2 (Homo sapiens, UniProt Q8IYT8).
T2 construct: purchased DiscoverX
The data set is described as follows: Kinase selectivity assay (DiscoverX KinomeScreen), ULK2. In kind it is binding. As to conditions: ULK2, 5 μM; read-out: % Control. On the procedure: as §1

The target in data set [4] is T3, STK36 (Homo sapiens, UniProt Q9NRP7).
T3 construct: purchased DiscoverX
The data set is described as follows: Kinase selectivity assay (DiscoverX KinomeScreen), STK36. Type of data set: binding. As to conditions: STK36, 5 μM; read-out: % Control. On the procedure:
as §1

In data set [5] the target is T4, CAMKK1 (Homo sapiens, UniProt Q8N5S9).
T4 construct: purchased DiscoverX
In words: Kinase selectivity assay (DiscoverX KinomeScreen), CAMKK1. In kind it is binding. As to conditions: CAMKK1, 5 μM; read-out: % Control. On the procedure: as §1

Data set [6] relates to glioblastoma cell line 906746. In words: Glioblastoma cancer cell viability, cell line 906746. In kind it is cell-based. As to the method:
(§2) Assay to Measure the Effects of Compounds of the Invention on Glioblastoma Cancer Cell Viability
(§3) The compound of Example 33 was tested for inhibitory activity against the glioblastoma cell lines in Table 7 below.

For data set [7], the target named is cytochrome P450 3A4 (Homo sapiens, UniProt P08684). In words: Cytochrome P450 inhibition, 3A4. Type of data set: in vitro ADME.
Data set [8] addresses T5, CHUK (Homo sapiens, UniProt O15111).
T5 construct: purchased DiscoverX
The data set is described as follows: Kinase selectivity assay (DiscoverX KinomeScreen), CHUK. Type of data set: binding. As to conditions: read-out: % Control. On the procedure: as §1

Data set [9] concerns the target T6, TLK2 (Homo sapiens, UniProt Q86UE8).
T6 construct: purchased DiscoverX
In words: Kinase selectivity assay (DiscoverX KinomeScreen), TLK2. As to conditions: TLK2, 5 μM; read-out: % Control. In kind it is binding. As to the method:
as §1

For data set [10], the system named is KRAS G12V HeLa cell line. In words: Wild-type versus KRAS HeLa cell viability: oncogenic KrasG12V transgene. In kind it is cell-based. As to conditions: Homo sapiens; HeLa cells expressing KRAS G12V, 72 hours. On the procedure: Assay to Measure the Effects of Compounds of the Invention on Wild-Type Versus KRAS HeLa Cell Viability
Identifying synthetic lethal interactions between targeted small molecule therapies and characterised oncogenic mutations is a goal of modern oncology drug discovery efforts. To this end, PLK1-PBD inhibitors were tested on HeLa cells engineered to inducibly express wild-type or oncogenic KrasG12V transgenes using the FLP-in/T-Rex system (Invitrogen). Cells were plated, and then treated with or without Doxycycline to induce transgene expression, and then treated with serially-diluted PBD inhibitors. After 72 hours of incubation, cell viability was assessed using the Cell Titre Blue reagent (Promega) and a BMG Pherastar plate reader. The effect of PBD inhibition on cell viability with either wild-type or oncogenic G12V KRAS was assessed using the graphing/curve-fitting packages in GraphPad Prism.

Data set [11] relates to glioblastoma cell line 909905. In words: Glioblastoma cancer cell viability, cell line 909905. In kind it is cell-based. On the procedure:
as §2, §3

For data set [12], the target named is T7, BUB1 (Homo sapiens, UniProt O43683).
T7 construct: purchased DiscoverX
In words: Kinase selectivity assay (DiscoverX KinomeScreen), BUB1. Type of data set: binding. As to conditions: BUB1, 5 μM; read-out: % Control. On the procedure: as §1

Data set [13] has as its target T8, WEE1 (Homo sapiens, UniProt P30291).
T8 construct: purchased DiscoverX
The data set is described as follows: Kinase selectivity assay (DiscoverX KinomeScreen), WEE1. To be noted: WEE1, 5 μM; read-out: % Control. In kind it is binding. As to the method:
as §1

Data set [14] deals with T9, WNK2 (Homo sapiens, UniProt Q9Y3S1).
T9 construct: purchased DiscoverX
In words: Kinase selectivity assay (DiscoverX KinomeScreen), WNK2. Type of data set: binding. As to conditions: WNK2, 5 μM; read-out: % Control. As to the method:
as §1

The target of data set [15] is T10, EIF2AK1 (Homo sapiens, UniProt Q9BQI3).
T10 construct: purchased DiscoverX
In words: Kinase selectivity assay (DiscoverX KinomeScreen), EIF2AK1. In kind it is binding. To be noted: EIF2AK1, 5 μM; read-out: % Control. On the procedure: as §1

In data set [16] the target is T11, TBK1 (Homo sapiens, UniProt Q9UHD2).
T11 construct: purchased DiscoverX
In words: Kinase selectivity assay (DiscoverX KinomeScreen), TBK1. Type of data set: binding. To be noted: TBK1, 5 μM; read-out: % Control. On the procedure:
as §1

Data set [17] has as its target T12, TTK (Homo sapiens, UniProt P33981).
T12 construct: purchased DiscoverX
In words: Kinase selectivity assay (DiscoverX KinomeScreen), TTK. In kind it is binding. To be noted: read-out: % Control. As to the method:
as §1

In data set [18] the test system is HCT116 cells. In words: Effects on HCT116 colorectal cancer cell viability (cell titre blue, 72 hours). To be noted: Homo sapiens, HCT-116, HCT116 cell line. In kind it is cell-based.
In data set [19] the test system is glioblastoma cell line 949094. In words: Glioblastoma cancer cell viability, cell line 949094. Type of data set: cell-based. As to the method: as §2, §3
In data set [20] the target is T13, NEK7 (Homo sapiens, UniProt Q8TDX7).
T13 construct: purchased DiscoverX
In words: Kinase selectivity assay (DiscoverX KinomeScreen), NEK7. In kind it is binding. As to conditions: NEK7, 5 μM; read-out: % Control. As to the method:
as §1

Where a name gives a salt, the structure may show the parent alone.

T8 sequence (P30291 whole entry): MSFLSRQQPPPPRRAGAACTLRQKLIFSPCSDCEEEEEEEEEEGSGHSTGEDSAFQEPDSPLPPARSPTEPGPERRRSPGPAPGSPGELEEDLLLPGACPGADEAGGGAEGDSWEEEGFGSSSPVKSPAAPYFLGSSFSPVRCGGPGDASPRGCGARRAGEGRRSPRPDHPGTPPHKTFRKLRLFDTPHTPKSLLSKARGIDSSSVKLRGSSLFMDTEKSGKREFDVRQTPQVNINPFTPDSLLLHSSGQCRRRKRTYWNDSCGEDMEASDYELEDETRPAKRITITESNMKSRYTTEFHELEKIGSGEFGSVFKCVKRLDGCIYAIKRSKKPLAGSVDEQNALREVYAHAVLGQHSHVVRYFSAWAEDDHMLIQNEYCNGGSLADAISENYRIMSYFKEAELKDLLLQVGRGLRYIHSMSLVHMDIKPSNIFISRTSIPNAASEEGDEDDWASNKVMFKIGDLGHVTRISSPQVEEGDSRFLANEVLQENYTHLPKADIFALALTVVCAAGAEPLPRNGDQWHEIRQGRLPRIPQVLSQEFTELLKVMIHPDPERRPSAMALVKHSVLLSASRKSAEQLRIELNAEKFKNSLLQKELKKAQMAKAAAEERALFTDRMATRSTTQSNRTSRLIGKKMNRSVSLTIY
Chain of cytochrome P450 3A4 (P08684 whole entry): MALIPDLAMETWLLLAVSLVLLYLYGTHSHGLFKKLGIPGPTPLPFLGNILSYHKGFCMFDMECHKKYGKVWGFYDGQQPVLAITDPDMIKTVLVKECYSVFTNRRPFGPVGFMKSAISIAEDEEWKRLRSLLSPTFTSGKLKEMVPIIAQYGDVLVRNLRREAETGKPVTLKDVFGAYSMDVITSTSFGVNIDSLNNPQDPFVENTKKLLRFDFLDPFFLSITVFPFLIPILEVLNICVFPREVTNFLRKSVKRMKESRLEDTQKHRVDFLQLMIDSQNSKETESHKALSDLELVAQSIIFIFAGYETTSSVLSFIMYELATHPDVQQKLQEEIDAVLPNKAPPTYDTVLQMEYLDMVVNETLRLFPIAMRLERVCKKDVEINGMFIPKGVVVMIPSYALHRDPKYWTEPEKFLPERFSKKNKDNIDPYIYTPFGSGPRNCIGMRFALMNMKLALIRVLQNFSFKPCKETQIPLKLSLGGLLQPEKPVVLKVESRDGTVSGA
T1 sequence (Q9HC98 whole entry): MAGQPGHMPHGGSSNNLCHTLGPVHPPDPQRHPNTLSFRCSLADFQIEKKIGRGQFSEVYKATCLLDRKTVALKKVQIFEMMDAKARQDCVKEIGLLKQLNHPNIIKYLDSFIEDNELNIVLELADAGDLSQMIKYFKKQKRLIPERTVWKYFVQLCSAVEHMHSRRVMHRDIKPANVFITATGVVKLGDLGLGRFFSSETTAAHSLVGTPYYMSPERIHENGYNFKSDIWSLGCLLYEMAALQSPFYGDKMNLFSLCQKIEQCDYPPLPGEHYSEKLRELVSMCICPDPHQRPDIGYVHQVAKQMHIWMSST
T9 sequence (Q9Y3S1 whole entry): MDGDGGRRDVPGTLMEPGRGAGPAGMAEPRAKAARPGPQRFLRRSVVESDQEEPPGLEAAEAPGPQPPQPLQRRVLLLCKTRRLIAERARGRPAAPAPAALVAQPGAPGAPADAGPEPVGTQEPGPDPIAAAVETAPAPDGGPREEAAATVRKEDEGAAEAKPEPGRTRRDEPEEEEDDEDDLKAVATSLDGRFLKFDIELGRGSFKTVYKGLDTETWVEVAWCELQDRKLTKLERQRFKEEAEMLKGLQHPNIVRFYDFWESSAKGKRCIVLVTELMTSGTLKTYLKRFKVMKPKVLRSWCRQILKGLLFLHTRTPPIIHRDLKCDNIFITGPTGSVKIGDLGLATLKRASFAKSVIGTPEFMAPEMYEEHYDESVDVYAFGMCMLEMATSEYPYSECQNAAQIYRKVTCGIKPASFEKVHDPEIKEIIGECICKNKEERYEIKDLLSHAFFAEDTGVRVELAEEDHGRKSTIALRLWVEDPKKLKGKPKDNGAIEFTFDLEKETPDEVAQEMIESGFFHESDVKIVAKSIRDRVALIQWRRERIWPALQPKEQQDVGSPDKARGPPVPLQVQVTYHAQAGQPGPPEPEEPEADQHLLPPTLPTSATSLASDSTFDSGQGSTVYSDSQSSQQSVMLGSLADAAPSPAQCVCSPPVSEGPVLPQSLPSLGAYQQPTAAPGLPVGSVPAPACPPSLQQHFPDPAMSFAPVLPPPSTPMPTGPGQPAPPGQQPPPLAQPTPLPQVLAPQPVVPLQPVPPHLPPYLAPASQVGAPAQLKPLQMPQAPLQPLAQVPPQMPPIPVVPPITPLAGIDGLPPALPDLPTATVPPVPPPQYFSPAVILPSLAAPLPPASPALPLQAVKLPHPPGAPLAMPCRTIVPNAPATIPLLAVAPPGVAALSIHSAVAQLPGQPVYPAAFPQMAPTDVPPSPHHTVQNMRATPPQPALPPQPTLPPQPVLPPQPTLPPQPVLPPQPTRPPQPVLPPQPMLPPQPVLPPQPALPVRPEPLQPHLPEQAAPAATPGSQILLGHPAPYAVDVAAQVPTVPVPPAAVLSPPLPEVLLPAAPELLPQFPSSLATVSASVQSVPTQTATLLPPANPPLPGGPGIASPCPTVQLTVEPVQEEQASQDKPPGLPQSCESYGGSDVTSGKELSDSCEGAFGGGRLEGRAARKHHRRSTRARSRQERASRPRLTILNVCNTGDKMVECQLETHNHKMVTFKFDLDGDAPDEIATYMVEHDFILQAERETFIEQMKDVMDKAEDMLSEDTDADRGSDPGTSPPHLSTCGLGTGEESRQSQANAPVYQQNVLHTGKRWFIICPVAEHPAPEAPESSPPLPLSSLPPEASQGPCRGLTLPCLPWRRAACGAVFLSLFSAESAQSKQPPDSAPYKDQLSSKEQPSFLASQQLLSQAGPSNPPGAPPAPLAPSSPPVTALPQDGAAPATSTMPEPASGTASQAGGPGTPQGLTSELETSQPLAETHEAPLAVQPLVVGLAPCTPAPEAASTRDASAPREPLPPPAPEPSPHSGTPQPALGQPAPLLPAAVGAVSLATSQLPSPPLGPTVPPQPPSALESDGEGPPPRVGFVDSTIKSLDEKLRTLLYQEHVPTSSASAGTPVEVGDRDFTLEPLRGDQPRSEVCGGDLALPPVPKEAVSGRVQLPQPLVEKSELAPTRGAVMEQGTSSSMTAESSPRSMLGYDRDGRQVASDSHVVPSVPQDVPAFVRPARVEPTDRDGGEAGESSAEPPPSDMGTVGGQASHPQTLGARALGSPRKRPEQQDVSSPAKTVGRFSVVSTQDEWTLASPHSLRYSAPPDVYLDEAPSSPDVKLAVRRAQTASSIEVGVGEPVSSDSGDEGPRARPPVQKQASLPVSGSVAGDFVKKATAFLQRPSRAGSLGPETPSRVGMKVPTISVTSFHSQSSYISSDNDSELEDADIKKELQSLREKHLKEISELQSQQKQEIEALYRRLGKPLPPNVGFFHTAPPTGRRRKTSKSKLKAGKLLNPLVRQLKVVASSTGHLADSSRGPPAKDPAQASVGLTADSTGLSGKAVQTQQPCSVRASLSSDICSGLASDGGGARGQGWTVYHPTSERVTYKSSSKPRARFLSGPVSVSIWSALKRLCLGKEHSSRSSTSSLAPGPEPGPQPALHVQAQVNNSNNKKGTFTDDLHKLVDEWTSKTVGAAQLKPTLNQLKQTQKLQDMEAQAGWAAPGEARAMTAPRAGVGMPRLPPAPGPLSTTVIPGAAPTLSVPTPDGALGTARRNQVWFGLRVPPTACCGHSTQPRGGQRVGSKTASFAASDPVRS
T7 sequence (O43683 whole entry): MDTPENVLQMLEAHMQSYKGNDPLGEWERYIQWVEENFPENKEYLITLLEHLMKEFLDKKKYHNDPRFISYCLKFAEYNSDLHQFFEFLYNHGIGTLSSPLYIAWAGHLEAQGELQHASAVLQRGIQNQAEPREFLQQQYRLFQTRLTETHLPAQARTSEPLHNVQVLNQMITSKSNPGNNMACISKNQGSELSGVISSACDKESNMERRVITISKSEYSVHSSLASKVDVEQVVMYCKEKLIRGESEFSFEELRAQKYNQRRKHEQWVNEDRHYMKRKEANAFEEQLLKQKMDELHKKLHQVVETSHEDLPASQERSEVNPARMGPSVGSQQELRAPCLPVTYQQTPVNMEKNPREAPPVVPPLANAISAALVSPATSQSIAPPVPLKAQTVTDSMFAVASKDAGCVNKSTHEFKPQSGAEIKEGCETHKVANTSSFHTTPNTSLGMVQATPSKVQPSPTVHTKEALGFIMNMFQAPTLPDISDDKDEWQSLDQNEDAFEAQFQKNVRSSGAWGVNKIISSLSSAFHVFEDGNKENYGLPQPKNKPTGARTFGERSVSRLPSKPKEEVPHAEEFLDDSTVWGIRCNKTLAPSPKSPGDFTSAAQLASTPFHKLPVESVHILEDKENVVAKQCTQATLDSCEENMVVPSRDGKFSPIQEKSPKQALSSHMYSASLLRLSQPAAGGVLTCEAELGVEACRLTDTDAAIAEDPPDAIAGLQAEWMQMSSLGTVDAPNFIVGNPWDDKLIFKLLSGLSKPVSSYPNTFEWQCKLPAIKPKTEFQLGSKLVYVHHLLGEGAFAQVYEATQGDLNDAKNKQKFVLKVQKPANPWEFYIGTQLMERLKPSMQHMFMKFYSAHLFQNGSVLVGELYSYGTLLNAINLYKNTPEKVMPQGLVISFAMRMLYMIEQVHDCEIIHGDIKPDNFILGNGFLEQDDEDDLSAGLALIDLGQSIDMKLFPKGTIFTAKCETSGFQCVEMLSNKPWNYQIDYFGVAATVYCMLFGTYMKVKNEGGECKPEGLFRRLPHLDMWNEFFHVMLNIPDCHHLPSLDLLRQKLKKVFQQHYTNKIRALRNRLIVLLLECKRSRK

The term IC50 denotes the point on the concentration scale where inhibition reaches its midpoint. A low value points to greater potency. As a reminder, the GI50 is the concentration giving 50% growth inhibition. Turning to `CN(C)CCNC(=O)c1ccc(-c2ccc(-c3ccc(Cl)cc3)n2-c2ccccc2C(F)(F)F)cc1` [Example 33, 4-[5-(4-chlorophenyl)-1-[2-(trifluoromethyl)phenyl]pyrrol-2-yl]-N-[2-(dimethylamino)ethyl]benzamide Hydrochloride], the “formation of drug-resistant colonies” value in [1] is “not”. For the same compound, the remaining activity at 5 µM in data set [2] came out at 99%; in data set [3], 100%; in data set [4], 91%; in data set [5], 91%; in [8], 100%; in data set [9], 94%. The remaining activity at 5 µM in data set [12] was found to be 90%; in [13] it was 98%; in [14], 100%; in data set [15], 98%; in [16], 80%; in [17], 83%. In addition, the remaining activity at 5 µM in data set [20] came out at 79%. Moreover, the IC50 in data set [6] is 430 nM; in data set [11], 276 nM; in data set [19] it was 709 nM. In addition, the “cytochrome P450 inhibition 3A4” value in data set [7] is more than 10 µM. For the same compound, the GI50 in [10] and in data set [18] was 10 nM in each case.
